The kinase profiling compilation of Christmann-Franck et al. (2016)
Values joined by “and” are separate entries in the source; they are usually repeats but may differ in a detail not shown here. Identical values can stand only once.

How the values were obtained:
Assay in all cases: KINOMEscan competition binding
Conditions in all cases: compound 0.1 µM
BTK (human) = BTK (human) (UniProt Q06187)
NEK1 (human) = NEK1 (human) (UniProt Q96PY6)
EPHA4 (human) = EPHA4 (human) (UniProt P54764)
MAP3K9 (human) = MAP3K9 (human) (UniProt P80192)
CDC42BPG (human) = CDC42BPG (human) (UniProt Q6DT37)
NEK7 (human) = NEK7 (human) (UniProt Q8TDX7)
PKN3 (M.tuberculosis) = PKN3 (M.tuberculosis) (UniProt Q6P5Z2)
INSR (human) = INSR (human) (UniProt P06213)
PAK4 (human) = PAK4 (human) (UniProt O96013)
NEK11 (human) = NEK11 (human) (UniProt Q8NG66)
NEK9 (human) = NEK9 (human) (UniProt Q8TD19)
Sequence of NEK9 (human) (Q8TD19 whole entry, looked up): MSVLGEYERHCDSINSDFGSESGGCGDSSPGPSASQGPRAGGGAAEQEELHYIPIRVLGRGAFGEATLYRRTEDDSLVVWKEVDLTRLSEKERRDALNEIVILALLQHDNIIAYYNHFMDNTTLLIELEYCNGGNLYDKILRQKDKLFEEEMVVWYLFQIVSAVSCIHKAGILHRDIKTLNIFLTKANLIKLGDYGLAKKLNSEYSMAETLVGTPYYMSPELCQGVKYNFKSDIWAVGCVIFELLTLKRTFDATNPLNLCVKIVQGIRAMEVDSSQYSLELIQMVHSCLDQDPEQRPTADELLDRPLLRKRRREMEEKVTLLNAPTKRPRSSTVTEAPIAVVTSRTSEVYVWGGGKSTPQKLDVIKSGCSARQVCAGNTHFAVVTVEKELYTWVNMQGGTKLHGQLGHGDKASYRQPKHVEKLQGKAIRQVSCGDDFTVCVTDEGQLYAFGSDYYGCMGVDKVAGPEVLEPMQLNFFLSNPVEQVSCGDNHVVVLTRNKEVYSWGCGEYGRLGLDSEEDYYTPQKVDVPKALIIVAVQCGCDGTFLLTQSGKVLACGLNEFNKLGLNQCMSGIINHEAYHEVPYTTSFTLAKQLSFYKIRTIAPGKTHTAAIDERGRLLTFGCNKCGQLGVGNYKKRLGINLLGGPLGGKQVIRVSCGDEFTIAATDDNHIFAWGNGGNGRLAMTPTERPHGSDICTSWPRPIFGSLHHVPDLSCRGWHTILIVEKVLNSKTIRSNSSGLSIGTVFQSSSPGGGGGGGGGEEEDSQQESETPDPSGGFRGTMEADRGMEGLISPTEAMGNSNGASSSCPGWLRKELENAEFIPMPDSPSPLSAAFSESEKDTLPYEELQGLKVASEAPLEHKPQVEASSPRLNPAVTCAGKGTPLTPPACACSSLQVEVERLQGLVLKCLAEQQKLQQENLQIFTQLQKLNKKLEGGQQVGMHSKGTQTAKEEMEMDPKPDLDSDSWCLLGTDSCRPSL

CAMKK2 (human) = CAMKK2 (human) (UniProt Q96RR4)
PHKG2 (human) = PHKG2 (human) (UniProt P15735)
MAP4K4 (human) = MAP4K4 (human) (UniProt O95819)
[1] = test system: EGFR (human), P00533 [G719C]
CAMK4 (human) = CAMK4 (human) (UniProt Q16566)
CDK9 (human) = CDK9 (human) (UniProt P50750)
ADCK4 (human) = ADCK4 (human) (UniProt Q96D53)
MAPK7 (human) = MAPK7 (human) (UniProt Q13164)
Sequence of MAPK7 (human) (Q13164 whole entry, looked up): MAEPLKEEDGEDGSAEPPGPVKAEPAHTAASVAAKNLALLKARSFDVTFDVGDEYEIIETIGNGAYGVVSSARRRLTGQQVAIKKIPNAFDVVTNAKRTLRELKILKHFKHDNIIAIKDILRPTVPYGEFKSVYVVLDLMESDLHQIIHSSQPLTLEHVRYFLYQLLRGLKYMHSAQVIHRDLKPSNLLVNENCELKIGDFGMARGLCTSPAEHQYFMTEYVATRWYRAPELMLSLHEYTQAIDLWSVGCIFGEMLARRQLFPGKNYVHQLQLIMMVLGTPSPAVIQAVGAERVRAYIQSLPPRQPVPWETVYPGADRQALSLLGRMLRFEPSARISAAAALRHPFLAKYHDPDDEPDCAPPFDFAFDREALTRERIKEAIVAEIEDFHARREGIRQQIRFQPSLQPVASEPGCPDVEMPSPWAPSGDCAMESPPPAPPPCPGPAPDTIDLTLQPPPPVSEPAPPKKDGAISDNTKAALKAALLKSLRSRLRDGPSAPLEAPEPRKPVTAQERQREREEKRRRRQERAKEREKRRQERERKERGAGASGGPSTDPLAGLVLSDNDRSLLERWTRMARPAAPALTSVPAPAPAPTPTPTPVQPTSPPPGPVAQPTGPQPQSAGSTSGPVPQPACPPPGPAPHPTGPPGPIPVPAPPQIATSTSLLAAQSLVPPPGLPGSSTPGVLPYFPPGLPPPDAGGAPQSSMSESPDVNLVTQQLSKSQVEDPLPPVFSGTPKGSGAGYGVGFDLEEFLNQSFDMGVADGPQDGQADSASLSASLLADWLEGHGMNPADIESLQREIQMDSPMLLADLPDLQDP

MAPK9 (human) = MAPK9 (human) (UniProt P45984)
Sequence of MAPK9 (human) (P45984 whole entry, looked up): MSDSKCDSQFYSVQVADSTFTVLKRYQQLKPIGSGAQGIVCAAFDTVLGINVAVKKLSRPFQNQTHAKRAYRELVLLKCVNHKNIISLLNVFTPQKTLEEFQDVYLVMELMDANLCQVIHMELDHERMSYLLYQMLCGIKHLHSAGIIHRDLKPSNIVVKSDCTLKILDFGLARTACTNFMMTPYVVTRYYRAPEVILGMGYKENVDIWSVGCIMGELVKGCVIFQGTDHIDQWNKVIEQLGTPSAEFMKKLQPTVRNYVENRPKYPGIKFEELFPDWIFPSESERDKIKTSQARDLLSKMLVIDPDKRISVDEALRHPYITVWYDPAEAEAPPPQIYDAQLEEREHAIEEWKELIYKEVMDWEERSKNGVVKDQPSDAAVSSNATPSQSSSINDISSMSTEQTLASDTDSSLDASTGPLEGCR

FLT1 (human) = FLT1 (human) (UniProt P17948)
PRKAA1 (human) = PRKAA1 (human) (UniProt Q13131)
MYLK2 (human) = MYLK2 (human) (UniProt Q9H1R3)
Sequence of MYLK2 (human) (Q9H1R3 whole entry, looked up): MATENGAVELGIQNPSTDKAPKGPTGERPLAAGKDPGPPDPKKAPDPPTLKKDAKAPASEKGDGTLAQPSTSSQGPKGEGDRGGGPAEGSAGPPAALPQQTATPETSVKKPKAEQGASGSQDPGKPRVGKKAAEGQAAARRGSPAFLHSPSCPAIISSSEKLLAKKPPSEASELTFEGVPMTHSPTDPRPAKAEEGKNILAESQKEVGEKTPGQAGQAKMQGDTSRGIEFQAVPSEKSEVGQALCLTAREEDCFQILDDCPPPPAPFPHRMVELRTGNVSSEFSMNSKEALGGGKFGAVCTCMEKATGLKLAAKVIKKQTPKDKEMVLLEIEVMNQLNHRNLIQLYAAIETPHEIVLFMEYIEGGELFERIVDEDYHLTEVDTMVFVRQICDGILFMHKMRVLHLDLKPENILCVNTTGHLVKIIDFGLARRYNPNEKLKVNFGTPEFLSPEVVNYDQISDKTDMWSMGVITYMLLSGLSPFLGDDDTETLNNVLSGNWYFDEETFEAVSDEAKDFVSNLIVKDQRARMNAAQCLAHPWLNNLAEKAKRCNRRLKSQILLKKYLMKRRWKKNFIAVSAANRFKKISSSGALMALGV

[2] = test system: LRRK2 (human), Q5S007 [G2019S]
AKT2 (human) = AKT2 (human) (UniProt P31751)
SGK2 (human) = SGK2 (human) (UniProt Q9HBY8)
TNK2 (human) = TNK2 (human) (UniProt Q07912)
SIK1 (human) = SIK1 (human) (UniProt P57059)
[3] = test system: PIK3CA (human), P42336 [E545A]
EPHB1 (human) = EPHB1 (human) (UniProt P54762)
YSK4 (human) = YSK4 (human) (UniProt Q56UN5)
SIK2 (human) = SIK2 (human) (UniProt Q9H0K1)
ACVRL1 (human) = ACVRL1 (human) (UniProt P37023)
CLK1 (human) = CLK1 (human) (UniProt P49759)
Sequence of CLK1 (human) (P49759 whole entry, looked up): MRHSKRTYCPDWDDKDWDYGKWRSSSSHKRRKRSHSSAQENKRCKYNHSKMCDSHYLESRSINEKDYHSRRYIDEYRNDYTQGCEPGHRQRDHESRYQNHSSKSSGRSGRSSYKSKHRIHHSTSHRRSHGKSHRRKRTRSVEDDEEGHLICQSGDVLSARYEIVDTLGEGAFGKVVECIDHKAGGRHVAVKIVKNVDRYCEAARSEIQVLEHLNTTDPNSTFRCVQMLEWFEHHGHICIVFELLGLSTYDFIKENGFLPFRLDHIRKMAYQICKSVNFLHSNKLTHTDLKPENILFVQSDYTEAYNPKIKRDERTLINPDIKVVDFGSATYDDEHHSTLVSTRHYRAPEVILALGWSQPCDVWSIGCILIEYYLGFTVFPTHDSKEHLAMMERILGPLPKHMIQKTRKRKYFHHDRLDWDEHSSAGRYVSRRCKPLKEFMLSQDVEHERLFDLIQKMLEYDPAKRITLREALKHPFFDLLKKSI

FLT3 (human) = FLT3 (human) (UniProt P36888)
Sequence of FLT3 (human) (P36888 whole entry, looked up): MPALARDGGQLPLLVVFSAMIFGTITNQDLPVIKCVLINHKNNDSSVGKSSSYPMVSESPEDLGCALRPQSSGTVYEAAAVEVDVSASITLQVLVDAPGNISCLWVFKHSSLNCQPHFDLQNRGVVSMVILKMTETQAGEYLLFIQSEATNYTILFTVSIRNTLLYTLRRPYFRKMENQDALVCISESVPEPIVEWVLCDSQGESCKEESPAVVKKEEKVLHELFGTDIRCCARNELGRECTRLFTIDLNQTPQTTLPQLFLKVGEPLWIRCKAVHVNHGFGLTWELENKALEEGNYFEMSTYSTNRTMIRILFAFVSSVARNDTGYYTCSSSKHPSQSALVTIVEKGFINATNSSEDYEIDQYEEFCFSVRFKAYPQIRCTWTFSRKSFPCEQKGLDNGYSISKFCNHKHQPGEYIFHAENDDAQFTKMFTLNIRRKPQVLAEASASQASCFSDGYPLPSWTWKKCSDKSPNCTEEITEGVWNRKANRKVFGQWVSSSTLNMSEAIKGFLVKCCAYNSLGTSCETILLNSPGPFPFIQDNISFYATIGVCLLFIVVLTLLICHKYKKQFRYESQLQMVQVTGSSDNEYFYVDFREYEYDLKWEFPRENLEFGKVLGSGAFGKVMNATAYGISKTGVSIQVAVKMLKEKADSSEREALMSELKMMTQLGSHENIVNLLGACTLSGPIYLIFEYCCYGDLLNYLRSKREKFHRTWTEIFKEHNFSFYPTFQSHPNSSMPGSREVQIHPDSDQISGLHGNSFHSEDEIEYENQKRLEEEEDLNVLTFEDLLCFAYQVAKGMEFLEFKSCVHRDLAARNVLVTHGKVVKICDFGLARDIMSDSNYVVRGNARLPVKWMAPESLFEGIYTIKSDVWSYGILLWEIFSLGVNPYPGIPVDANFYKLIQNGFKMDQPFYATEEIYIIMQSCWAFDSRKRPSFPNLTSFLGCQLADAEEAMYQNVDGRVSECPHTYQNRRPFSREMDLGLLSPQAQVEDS

TAOK2 (human) = TAOK2 (human) (UniProt Q9UL54)
[4] = test system: ABL1 (human), P00519 [F317I]
MAPK14 (human) = MAPK14 (human) (UniProt Q16539)
[5] = test system: PIK3CA (human), P42336 [H1047L]
[6] = test system: PIK3CA (human), P42336 [E545K]

Sequence of BTK (human) (Q06187 whole entry, looked up): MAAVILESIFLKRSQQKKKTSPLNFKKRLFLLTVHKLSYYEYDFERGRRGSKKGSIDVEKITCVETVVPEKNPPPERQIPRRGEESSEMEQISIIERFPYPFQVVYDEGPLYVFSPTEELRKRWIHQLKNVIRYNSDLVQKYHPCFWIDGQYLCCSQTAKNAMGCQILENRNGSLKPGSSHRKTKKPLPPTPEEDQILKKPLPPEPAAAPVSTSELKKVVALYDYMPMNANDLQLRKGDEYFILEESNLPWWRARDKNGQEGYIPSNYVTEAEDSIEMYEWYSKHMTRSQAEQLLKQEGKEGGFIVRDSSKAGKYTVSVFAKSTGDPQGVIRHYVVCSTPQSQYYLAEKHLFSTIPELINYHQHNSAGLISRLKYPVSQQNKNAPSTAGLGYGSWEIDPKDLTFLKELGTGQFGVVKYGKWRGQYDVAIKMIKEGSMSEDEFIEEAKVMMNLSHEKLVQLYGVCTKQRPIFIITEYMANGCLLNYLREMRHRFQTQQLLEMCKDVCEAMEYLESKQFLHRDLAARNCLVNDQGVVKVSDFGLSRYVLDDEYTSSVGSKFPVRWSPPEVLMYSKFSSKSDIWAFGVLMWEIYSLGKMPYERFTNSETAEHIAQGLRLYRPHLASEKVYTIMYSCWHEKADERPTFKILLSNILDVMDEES

Compound: CCc1ccc(C(=O)Nc2cc(CN3CCN(C)CC3)cc(C(F)(F)F)c2)cc1C#Cc1cnc2ccnn2c1
- kinase still bound, per cent of control (BTK (human)): 100%
- kinase still bound, per cent of control (NEK1 (human)): 93%
- kinase still bound, per cent of control (EPHA4 (human)): 97%
- kinase still bound, per cent of control (MAP3K9 (human)): 100%
- kinase still bound, per cent of control (CDC42BPG (human)): 100%
- kinase still bound, per cent of control (NEK7 (human)): 95%
- kinase still bound, per cent of control (PKN3 (M.tuberculosis)): 78%
- kinase still bound, per cent of control (INSR (human)): 86%
- kinase still bound, per cent of control (PAK4 (human)): 80%
- kinase still bound, per cent of control (NEK11 (human)): 91%
- kinase still bound, per cent of control (NEK9 (human)): 100%
- kinase still bound, per cent of control (CAMKK2 (human)): 73%
- kinase still bound, per cent of control (PHKG2 (human)): 66%
- kinase still bound, per cent of control (MAP4K4 (human)): 100%
- kinase still bound, per cent of control [1]: 100%
- kinase still bound, per cent of control (CAMK4 (human)): 100%
- kinase still bound, per cent of control (CDK9 (human)): 98%
- kinase still bound, per cent of control (ADCK4 (human)): 100%
- kinase still bound, per cent of control (MAPK7 (human)): 100%
- kinase still bound, per cent of control (MAPK9 (human)): 100%
- kinase still bound, per cent of control (FLT1 (human)): 84%
- kinase still bound, per cent of control (PRKAA1 (human)): 83%
- kinase still bound, per cent of control (MYLK2 (human)): 100%
- kinase still bound, per cent of control [2]: 94%
- kinase still bound, per cent of control (AKT2 (human)): 83%
- kinase still bound, per cent of control (SGK2 (human)): 94%
- kinase still bound, per cent of control (TNK2 (human)): 96%
- kinase still bound, per cent of control (SIK1 (human)): 100%
- kinase still bound, per cent of control [3]: 100%
- kinase still bound, per cent of control (EPHB1 (human)): 96%
- kinase still bound, per cent of control (YSK4 (human)): 100%
- kinase still bound, per cent of control (SIK2 (human)): 100%
- kinase still bound, per cent of control (ACVRL1 (human)): 100%
- kinase still bound, per cent of control (CLK1 (human)): 71%
- kinase still bound, per cent of control (FLT3 (human)): 78% and 100%
- kinase still bound, per cent of control (TAOK2 (human)): 100%
- kinase still bound, per cent of control [4]: 83%
- kinase still bound, per cent of control (MAPK14 (human)): 85%
- kinase still bound, per cent of control [5]: 100%
- kinase still bound, per cent of control [6]: 100%
